Patent publication US12344610B2, “APOL1 inhibitors and methods of use” (Maze Therapeutics, Inc., priority 2022, dated 2025)

What was measured:
[1] = system: HEK293 clonal cell line overexpressing APOL1 G1; experiment: APOL1 G1 HEK293 cell rescue assay (Example B3); format: cell-based; details: geometric mean of at least 2 runs, † = single run, ¥ = concentration at 50% rescue estimated (no sigmoidal curve)
Protocol: Compounds were also assayed in a HEK293 clonal cell line overexpressing APOL1 G1 by a method similar to that shown in Example B2 above.
Unless otherwise specified, EC50 values are reported as the geometric mean of at least 2 assay runs on separate days. Each run represents the average of a technical replicate, where each compound was assayed twice in the same plate. A superscript † symbol indicates a value from the average of a technical replicate from a single assay run, where each compound was assayed twice in the same plate. A ¥ symbol represents compound concentration at 50% rescue estimated due to lack of sigmoidal curve preventing curve fitting. Compounds in Table 41 are referred to by the corresponding Compound Number in Table 1, which is also referred to in the synthetic examples. When one or more of the numbered compounds are identified by stereochemistry (for example, (R)- or (S)-), the specific stereoisomer for which data is provided in Table 41 may be identified by the elution order of such compound as described in the synthetic examples. Absolute stereochemistry of such compounds may be identified by methods known in the art. For Table 41 below, n/a represents “not available”.
Rescue EC50 values reported in Table 41 below represent the half-maximal effective concentration for reversal of cell death caused by overexpression of APOL1.

[2] = system: HEK293 cells overexpressing APOL1 G2; experiment: APOL1 G2 HEK293 cell rescue assay (reversal of cell death caused by overexpression of APOL1); format: cell-based; details: geometric mean of at least 2 assay runs, † = single assay run
Protocol: Unless otherwise specified, EC50 values are reported as the geometric mean of at least 2 assay runs on separate days. Each run represents the average of a technical replicate, where each compound was assayed twice in the same plate. A superscript t symbol indicates a value from the average of a technical replicate from a single assay run, where each compound was assayed twice in the same plate. Compounds in Table 40 are referred to by the corresponding Compound Number in Table 1, which is also referred to in the synthetic examples. When one or more of the numbered compounds are identified by stereochemistry (for example, (R)- or (S)-), the specific stereoisomer for which data is provided in Table 40 may be identified by the elution order of such compound as described in the synthetic examples. Absolute stereochemistry of such compounds may be identified by methods known in the art. For Table 40 below, n/a represents “not available”.
Rescue EC50 values reported in Table 40 below represent the half-maximal effective concentration for reversal of cell death caused by overexpression of APOL1.

[3] = HEK293 clonal line overexpressing APOL1 G1
[4] = Homo sapiens, HEK293, HEK293 clonal line overexpressing APOL1 G1
[5] = Homo sapiens, HEK293, HEK293 overexpressing APOL1 G2

Structure (SMILES) | EC50 [1, 3] [µM] | EC50 ([2]; HEK293 overexpressing APOL1 G2) [µM] | EC50 [1, 4] [µM] | EC50 [2, 5] [µM]
CC(COc1ccc(S(C)(=O)=O)cc1)N1CCC2(CC1)C(=O)N(C1CC(O)C1)c1ccc(Cl)cc12 (single isomer, unassigned) [Compound 206, 5-chloro-1′-[(2S) or (2R)-1-(4-methanesulfonylphenoxy)propan-2-yl]-1-[(cis) or (trans)-3-hydroxycyclobutyl]-1,2-dihydrospiro[indole-3,4′-piperidin]-2-one] | 4.31 | > 9.54 | – | –
CC(COc1ccc(S(C)(=O)=O)cc1)N1CCC2(CC1)C(=O)N(C1CC(O)C1)c1ccc(Cl)cc12 (single isomer, unassigned) [Compound 207, 5-chloro-1′-[(2S) or (2R)-1-(4-methanesulfonylphenoxy)propan-2-yl]-1-[(trans) or (cis)-3-hydroxycyclobutyl]-1,2-dihydrospiro[indole-3,4′-piperidin]-2-one] | > 10 | > 10 | – | –
O=C1CCc2cc(OCCN3CCC4(CC3)C(=O)Nc3ccc(C(F)F)cc34)cnc2N1C1CC(CO)C1 (single isomer, unassigned) [Compound 310, 5-(difluoromethyl)-1′-[2-({7-oxo-8-[(trans) or (cis)-3-(hydroxymethyl)cyclobutyl]-5,6,7,8-tetrahydro-1,8-naphthyridin-3-yl}oxy)ethyl]-1,2-dihydrospiro[indole-3,4′-piperidin]-2-one] | 0.267 | 0.103 | – | –
O=C1Nc2ccc(Cl)cc2C12CCN(CCOc1cnc(C(O)CO)nc1)CC2 (single isomer, unassigned) [Compound 378, 5-chloro-1′-[2-({2-[(1S or 1R)-1,2-dihydroxyethyl]pyrimidin-5-yl}oxy)ethyl]-1,2-dihydrospiro[indole-3,4′-piperidin]-2-one] | ~1 | 0.388 | – | –
O=C1Nc2ccc(Cl)cc2C12CCN(CCOc1cnc(C(O)CO)nc1)CC2 (single isomer, unassigned) [Compound 379, 5-chloro-1′-[2-({2-[(1R or 1S)-1,2-dihydroxyethyl]pyrimidin-5-yl}oxy)ethyl]-1,2-dihydrospiro[indole-3,4′-piperidin]-2-one] | > 10 | 0.842 | – | –
CC(CO)(c1ncc(OCCN2CCC3(CC2)C(=O)Nc2ccc(Cl)cc23)cc1C(F)(F)F)S(C)(=O)=O (single isomer, unassigned) [Compound 403, 5-chloro-1′-[2-({6-[(2R or 2S)-1-hydroxy-2-methanesulfonylpropan-2-yl]-5-(trifluoromethyl)pyridin-3-yl}oxy)ethyl]-1,2-dihydrospiro[indole-3,4′-piperidin]-2-one] | 0.144 | 0.0957 | – | –
CN1C(=O)C2(CCN(CCOc3ccc(C4(S(C)(=O)=O)CC(O)C4)cc3)CC2)c2cc(C(F)F)ccc21 (stereo not drawn) [Compound 277, 5-(difluoromethyl)-1′-{2-[4-(3-hydroxy-1-methanesulfonylcyclobutyl)phenoxy]ethyl}-1-methyl-1,2-dihydrospiro[indole-3,4′-piperidin]-2-one] | – | – | 0.117 | 0.034
CS(=O)(=O)C1(c2ccc(OCCN3CCC4(CC3)C(=O)Nc3ccc(C(F)F)cc34)cc2)CC(O)C1 (stereo not drawn) [Compound 280, 5-(difluoromethyl)-1′-{2-[4-(3-hydroxy-1-methanesulfonylcyclobutyl)phenoxy]ethyl}-1,2-dihydrospiro[indole-3,4′-piperidin]-2-one] | – | – | 0.235 | 0.08
O=C1CCc2cc(OCCN3CCC4(CC3)C(=O)Nc3ccc(Cl)cc34)cnc2N1 [Compound 293, 5-chloro-1′-{2-[(7-oxo-5,6,7,8-tetrahydro-1,8-naphthyridin-3-yl)oxy]ethyl}-1,2-dihydrospiro[indole-3,4′-piperidin]-2-one] | – | – | 0.193 | 0.294
CC(O)c1ncc(OCCN2CCC3(CC2)C(=O)Nc2ccc(C(F)F)cc23)cc1C(F)(F)F (stereo not drawn) [Compound 296, 5-(difluoromethyl)-1′-(2-{[6-(1-hydroxyethyl)-5-(trifluoromethyl)pyridin-3-yl]oxy}ethyl)-1,2-dihydrospiro[indole-3,4′-piperidin]-2-one] | – | – | 0.159 | 0.0773
O=C1CCc2cc(OCCN3CCC4(CC3)C(=O)Nc3ccc(Cl)cc34)cnc2N1C1CC(O)(C2CC2)C1 (stereo not drawn) [Compound 299, 5-chloro-1′-(2-{[8-(3-cyclopropyl-3-hydroxycyclobutyl)-7-oxo-5,6,7,8-tetrahydro-1,8-naphthyridin-3-yl]oxy}ethyl)-1,2-dihydrospiro[indole-3,4′-piperidin]-2-one] | – | – | 0.0636 | 0.0213
CCC1(O)CC(N2C(=O)CCc3cc(OCCN4CCC5(CC4)C(=O)Nc4ccc(Cl)cc45)cnc32)C1 (stereo not drawn) [Compound 318] | – | – | 0.0659 | 0.0232
O=C1Nc2ccc(Cl)cc2C12CCN(CCOc1cnc(C(O)CO)nc1)CC2 (stereo not drawn) [Compound 330, 5-chloro-1′-(2-{[2-(1,2-dihydroxyethyl)pyrimidin-5-yl]oxy}ethyl)-1,2-dihydrospiro[indole-3,4′-piperidin]-2-one] | – | – | ~1.5 | 0.668
N#Cc1ccc2c(c1)C1(CCN(CCOc3cnc(CCO)nc3)CC1)C(=O)N2 [Compound 332, 1′-(2-{[2-(2-hydroxyethyl)pyrimidin-5-yl]oxy}ethyl)-2-oxo-1,2-dihydrospiro[indole-3,4′-piperidine]-5-carbonitrile] | – | – | ~10 | –
CC(O)c1ncc(OCCN2CCC3(CC2)C(=O)Nc2ccc(C#N)cc23)cc1C(F)(F)F (stereo not drawn) [Compound 338, 1′-(2-{[6-(1-hydroxyethyl)-5-(trifluoromethyl)pyridin-3-yl]oxy}ethyl)-2-oxo-1,2-dihydrospiro[indole-3,4′-piperidine]-5-carbonitrile] | – | – | 0.213 | 0.0994
C[C@]1(O)C[C@@H](n2c(=O)cc(C(F)F)c3cc(OCCN4CCC5(CC4)C(=O)Nc4ccc(Cl)cc45)cnc32)C1 [Compound 339, 5-chloro-1′-(2-{[5-(difluoromethyl)-7-oxo-8-[(cis)-3-hydroxy-3-methylcyclobutyl]-7,8-dihydro-1,8-naphthyridin-3-yl]oxy}ethyl)-1,2-dihydrospiro[indole-3,4′-piperidin]-2-one] | – | – | – | 0.0366
C[C@]1(O)C[C@@H](n2c(=O)cc(C(F)F)c3cc(OCCN4CCC5(CC4)C(=O)Nc4ccc(C(F)F)cc45)cnc32)C1 [Compound 340, 5-(difluoromethyl)-1′-(2-{[5-(difluoromethyl)-7-oxo-8-[(cis)-3-hydroxy-3-methylcyclobutyl]-7,8-dihydro-1,8-naphthyridin-3-yl]oxy}ethyl)-1,2-dihydrospiro[indole-3,4′-piperidin]-2-one] | – | – | – | 0.0302
CP(C)(=O)C1(c2ncc(OCCN3CCC4(CC3)C(=O)Nc3ccc(Cl)cc34)cn2)CC1 [Compound 344, 5-chloro-1′-[2-({2-[1-(dimethylphosphoryl)cyclopropyl]pyrimidin-5-yl}oxy)ethyl]-1,2-dihydrospiro[indole-3,4′-piperidin]-2-one] | – | – | 0.254 | 0.194
C[C@]1(O)C[C@@H](n2cnc3cc(OCCN4CCC5(CC4)C(=O)Nc4ccc(Cl)cc45)ccc32)C1 [Compound 351, 5-chloro-1′-[2-({1-[(cis)-3-hydroxy-3-methylcyclobutyl]-1H-1,3-benzodiazol-5-yl}oxy)ethyl]-1,2-dihydrospiro[indole-3,4′-piperidin]-2-one] | – | – | 0.299 | 0.166
C[C@]1(O)C[C@@H](N2C(=O)CCc3cc(OCCN4CCC5(CC4)C(=O)Nc4ccc(Cl)cc45)cc(C(F)(F)F)c32)C1 [Compound 353, 5-chloro-1′-[2-({2-oxo-1-[(cis)-3-hydroxy-3-methylcyclobutyl]-8-(trifluoromethyl)-1,2,3,4-tetrahydroquinolin-6-yl}oxy)ethyl]-1,2-dihydrospiro[indole-3,4′-piperidin]-2-one] | – | – | 0.0345 | 0.0123
C[C@]1(O)C[C@@H](N2C(=O)CCc3cc(OCCN4CCC5(CC4)C(=O)Nc4ccc(C#N)cc45)cc(C(F)(F)F)c32)C1 [Compound 354, 2-oxo-1′-[2-({2-oxo-1-[(cis)-3-hydroxy-3-methylcyclobutyl]-8-(trifluoromethyl)-1,2,3,4-tetrahydroquinolin-6-yl}oxy)ethyl]-1,2-dihydrospiro[indole-3,4′-piperidine]-5-carbonitrile] | – | – | 0.0401 | 0.0146
